Test [1] deals with T1, Cytochrome P450 3A4 (Homo sapiens, UniProt P08684). Description: Inhibition against Cytochrome P450 3A4 prepared from baculovirus-infected insect cells using resorufin benzyl ether. In kind it is ADME.
A further test deals with T2, Cytochrome P450 1A2 (Homo sapiens, UniProt P05177).
T2 sequence (P05177 whole entry): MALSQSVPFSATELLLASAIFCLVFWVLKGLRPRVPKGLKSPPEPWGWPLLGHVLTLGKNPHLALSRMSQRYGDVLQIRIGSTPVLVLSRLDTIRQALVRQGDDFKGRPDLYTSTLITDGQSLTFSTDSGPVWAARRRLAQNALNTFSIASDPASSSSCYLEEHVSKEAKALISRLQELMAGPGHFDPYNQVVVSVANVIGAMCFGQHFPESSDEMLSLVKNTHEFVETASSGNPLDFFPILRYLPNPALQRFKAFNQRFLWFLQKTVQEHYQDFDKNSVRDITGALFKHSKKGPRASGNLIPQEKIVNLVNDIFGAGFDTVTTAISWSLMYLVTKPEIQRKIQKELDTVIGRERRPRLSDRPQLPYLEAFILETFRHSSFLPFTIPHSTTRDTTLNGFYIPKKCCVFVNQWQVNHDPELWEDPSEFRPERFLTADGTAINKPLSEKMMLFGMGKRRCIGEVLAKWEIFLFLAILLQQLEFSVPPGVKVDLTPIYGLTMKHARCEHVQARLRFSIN
Description: Inhibition against Cytochrome P450 1A2 prepared from baculovirus-infected insect cells using 3-cyano-7-ethoxycoumarin. In kind it is ADME.

For a further test, the target named is Cytochrome P450 2C19 (Homo sapiens, UniProt P33261). Description: Inhibition against Cytochrome P450 2C19 prepared from baculovirus-infected insect cells using 3-cyano-7-ethoxycoumarin. In kind it is ADME.
The target in test [2] is T3, Cytochrome P450 2C9 (Homo sapiens, UniProt P11712). The test can be described thus: Inhibition against Cytochrome P450 2C9 prepared from baculovirus-infected insect cells using 7-methoxy-4-trifluoromethylcoumarin. The test is classed as ADME.
For test [3], the target named is T1, Cytochrome P450 3A4. Description: Inhibition against Cytochrome P450 3A4 prepared from baculovirus-infected insect cells using 7-benzyloxy- 4-trifluoromethylcoumarin. In kind it is ADME.
Test [4] concerns the target T4, Cytochrome P450 2D6 (Homo sapiens, UniProt P10635). The test can be described thus: Inhibition against Cytochrome P450 2D6 prepared from baculovirus-infected insect cells using 3-[2-(N,N-diethyl-N-methylamino)ethyl]-7- methoxy-4-methylcoumarin. The test is classed as ADME.
Test [5] can be described thus: Percent increase of potassium current mediated by large conductance calcium-activated channel expressed in Xenopus laevis oocytes at 20 uM. In kind it is functional, Homo sapiens, Oocyte.
For test [6], the target named is T3, Cytochrome P450 2C9. The test can be described thus: Inhibitory activity against Cytochrome P450 2C9. The test is classed as ADME.
The target in test [7] is T3, Cytochrome P450 2C9. The test can be described thus: Inhibition against Cytochrome P450 2C9. In kind it is ADME.
The target of test [8] is T1, Cytochrome P450 3A4. Description: Inhibition against Cytochrome P450 3A4 prepared from baculovirus-infected insect cells using resorufin benzylether. The test is classed as ADME.
In test [9] the target is T1, Cytochrome P450 3A4. The test can be described thus: Inhibition against Cytochrome P450 3A4 prepared from baculovirus-infected insect cells using 7-benzyloxy-4-trifluoromethylcoumarin. The test is classed as ADME.
Test [10] deals with T4, Cytochrome P450 2D6. The test can be described thus: Inhibition against Cytochrome P450 2D6 prepared from baculovirus-infected insect cells using 3-[2-(N,N-diethyl-N-methylamino)ethyl]-7-methoxy-4-methylcoumarin. The test is classed as ADME.

The record followed here is ChEMBL document CHEMBL1141054, “Analogs of a potent maxi-K potassium channel opener with an improved inhibitory profile toward cytochrome P450 isozymes” (Bioorg Med Chem Lett, 2005).

Where only a bound is given, the exact number is not on record here.

What is called IC50 is the concentration at which inhibition is half-maximal. A high value points to a need for much substance.

T3 sequence (P11712 whole entry): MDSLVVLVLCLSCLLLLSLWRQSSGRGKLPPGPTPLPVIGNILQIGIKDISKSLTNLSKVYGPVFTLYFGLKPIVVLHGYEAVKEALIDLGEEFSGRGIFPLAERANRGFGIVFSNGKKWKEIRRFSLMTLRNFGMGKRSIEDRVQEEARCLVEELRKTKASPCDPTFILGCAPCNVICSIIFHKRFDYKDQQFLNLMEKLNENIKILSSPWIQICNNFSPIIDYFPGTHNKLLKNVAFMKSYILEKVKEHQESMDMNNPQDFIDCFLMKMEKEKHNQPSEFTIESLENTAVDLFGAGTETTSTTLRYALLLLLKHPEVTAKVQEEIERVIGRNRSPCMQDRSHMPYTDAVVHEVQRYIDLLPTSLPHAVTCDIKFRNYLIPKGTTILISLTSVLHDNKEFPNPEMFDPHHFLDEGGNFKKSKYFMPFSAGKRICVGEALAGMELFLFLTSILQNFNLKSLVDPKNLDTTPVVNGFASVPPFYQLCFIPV
T4 sequence (P10635 whole entry): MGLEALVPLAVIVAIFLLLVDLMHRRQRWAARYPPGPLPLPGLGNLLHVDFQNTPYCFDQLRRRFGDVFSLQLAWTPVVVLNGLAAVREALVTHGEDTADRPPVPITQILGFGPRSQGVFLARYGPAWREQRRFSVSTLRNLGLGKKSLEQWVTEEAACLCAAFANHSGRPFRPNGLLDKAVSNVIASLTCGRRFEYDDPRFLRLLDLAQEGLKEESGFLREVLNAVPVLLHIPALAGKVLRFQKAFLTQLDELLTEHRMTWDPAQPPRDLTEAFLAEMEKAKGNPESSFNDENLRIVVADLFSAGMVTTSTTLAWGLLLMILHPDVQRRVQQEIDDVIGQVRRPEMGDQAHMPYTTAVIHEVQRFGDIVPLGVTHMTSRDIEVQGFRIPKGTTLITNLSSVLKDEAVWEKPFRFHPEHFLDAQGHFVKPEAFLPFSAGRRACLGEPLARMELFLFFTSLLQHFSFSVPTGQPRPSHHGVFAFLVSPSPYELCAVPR
Chain of Cytochrome P450 2C19 (P33261 whole entry): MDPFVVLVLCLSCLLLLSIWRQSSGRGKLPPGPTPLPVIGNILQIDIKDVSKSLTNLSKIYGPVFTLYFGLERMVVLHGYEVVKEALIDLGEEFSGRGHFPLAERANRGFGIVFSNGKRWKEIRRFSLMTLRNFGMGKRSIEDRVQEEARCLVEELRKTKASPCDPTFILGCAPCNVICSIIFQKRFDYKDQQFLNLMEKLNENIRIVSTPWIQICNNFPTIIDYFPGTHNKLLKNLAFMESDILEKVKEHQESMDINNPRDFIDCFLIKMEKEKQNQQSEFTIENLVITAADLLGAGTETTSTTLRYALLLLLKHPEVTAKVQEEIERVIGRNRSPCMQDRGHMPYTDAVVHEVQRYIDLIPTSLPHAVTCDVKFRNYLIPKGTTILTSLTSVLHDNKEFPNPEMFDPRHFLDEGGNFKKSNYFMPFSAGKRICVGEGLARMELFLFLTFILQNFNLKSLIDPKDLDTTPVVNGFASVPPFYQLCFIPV
T1 sequence (P08684 whole entry): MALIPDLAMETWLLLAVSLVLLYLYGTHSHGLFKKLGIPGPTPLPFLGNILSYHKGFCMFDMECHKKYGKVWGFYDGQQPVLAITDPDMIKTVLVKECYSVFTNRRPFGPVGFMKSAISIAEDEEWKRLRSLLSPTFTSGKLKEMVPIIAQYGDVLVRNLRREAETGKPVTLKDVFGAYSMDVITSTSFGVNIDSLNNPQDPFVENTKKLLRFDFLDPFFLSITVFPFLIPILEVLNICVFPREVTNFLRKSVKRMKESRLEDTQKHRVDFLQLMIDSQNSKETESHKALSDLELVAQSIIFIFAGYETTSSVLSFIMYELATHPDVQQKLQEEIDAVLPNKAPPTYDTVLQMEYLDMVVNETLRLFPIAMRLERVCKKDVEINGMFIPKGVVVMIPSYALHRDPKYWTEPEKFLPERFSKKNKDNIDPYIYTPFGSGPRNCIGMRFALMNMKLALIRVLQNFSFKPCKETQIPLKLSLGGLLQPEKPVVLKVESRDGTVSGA

As to `O=c1c(CCO)c(-c2cc(Cl)ccc2O)c2cc(C(F)(F)F)ccc2n1Cc1nn[nH]n1`, the IC50 on Cytochrome P450 3A4 [1] was 13 µM; on Cytochrome P450 1A2 it was above 100 µM; against Cytochrome P450 2C19, 12 µM; against Cytochrome P450 2C9 [2] it was 19 µM; against Cytochrome P450 3A4 [3], 30 µM; against Cytochrome P450 2D6 [4], above 100 µM. In addition, the Increase in test [5] came to 205.8%.

Consider `N=C(N)Cn1c(=O)c(CCO)c(-c2cc(Cl)ccc2O)c2cc(C(F)(F)F)ccc21`, for which, in test [5], the Increase is recorded as 105.8%.

Consider `O=C1Cc2c(c3cc(C(F)(F)F)ccc3[nH]c2=O)-c2cc(Cl)ccc2O1`, for which it took 12.4 µM to reach half-maximal inhibition on Cytochrome P450 2C9 [6] (IC50).

Consider `NC(=O)COc1ccc(Cl)cc1-c1c(CCO)c(O)nc2ccc(C(F)(F)F)cc12`, for which the Increase in [5] is given as 124%.

Regarding `N#CCn1c(=O)c(CCO)c(-c2cc(Cl)ccc2O)c2cc(C(F)(F)F)ccc21`, the IC50 is 18 µM against Cytochrome P450 3A4 [1]; above 40 µM on Cytochrome P450 1A2; 24 µM against Cytochrome P450 2C19; 3.9 µM on Cytochrome P450 2C9 [2]; 13 µM on Cytochrome P450 3A4 [3]; 23 µM against Cytochrome P450 2D6 [4]. For the same molecule, the Increase in test [5] came to 236.6%.

The molecule `CCN(CC)C[C@H](O)CSc1c(-c2cc(Cl)ccc2O)c2cc(C(F)(F)F)ccc2[nH]c1=O` returned a half-inhibitory concentration (IC50) against Cytochrome P450 2C9 [6] of 37.7 µM.

In the case of `CCN(CC)C[C@@H](O)CSc1c(-c2cc(Cl)ccc2O)c2cc(C(F)(F)F)ccc2[nH]c1=O`, the IC50 at Cytochrome P450 2C9 [6] turned out to be 50.7 µM.

As for `OCCc1c(O)nc2ccc(C(F)(F)F)cc2c1-c1cc(Cl)ccc1OCc1nn[nH]n1`, the Increase in test [5] stood at 111%.

In the case of `O=c1[nH]c2ccccc2c(Cc2ccccc2)c1-[n+]1ccccc1`, the IC50 on Cytochrome P450 2C9 [6] is above 100 µM.

Take `N=C(N)COc1ccc(Cl)cc1-c1c(CCO)c(O)nc2ccc(C(F)(F)F)cc12`: the Increase in test [5] came to 118.3%.

As to `NC(=O)Cn1c(=O)c(CCO)c(-c2cc(Cl)ccc2O)c2cc(C(F)(F)F)ccc21`, the IC50 was 50 µM against Cytochrome P450 3A4 [1]; above 100 µM at Cytochrome P450 1A2; 8.2 µM against Cytochrome P450 2C19; 16 µM at Cytochrome P450 2C9 [2]; 26 µM at Cytochrome P450 3A4 [3]; above 100 µM against Cytochrome P450 2D6 [4]. Besides, the Increase in test [5] is reported as 262.5%.

For the molecule `N#CCOc1ccc(Cl)cc1-c1c(CCO)c(O)nc2ccc(C(F)(F)F)cc12`, the Increase in test [5] turned out to be 148.9%.

`Cn1c(=O)c(CCO)c(-c2cc(Cl)ccc2O)c2cc(C(F)(F)F)ccc21` had a half-inhibitory concentration (IC50) against Cytochrome P450 2C9 [6] of 1.1 µM. Besides, in test [5], the Increase worked out at 296.1%.

`CC(=O)CC1Oc2ccc(Cl)cc2-c2c1c(=O)[nH]c1ccc(C(F)(F)F)cc21` (stereo not drawn) registered an IC50 at Cytochrome P450 2C9 [6] of 19.5 µM.

`COc1ccc(Cl)cc1-c1c(CCO)c(O)nc2ccc(C(F)(F)F)cc12` returned an IC50 against Cytochrome P450 2C9 [6] of 5.47 µM. For the same molecule, the Increase in [5] is given as 211.2%.

Take `O=c1[nH]c2ccc(C(F)(F)F)cc2c(-c2cc(Cl)ccc2O)c1CCO` [BMS-223131]: the IC50 was 1.7 µM at Cytochrome P450 2C9 [7]; above 100 µM at Cytochrome P450 3A4 [8]; 30 µM against Cytochrome P450 1A2; 5.2 µM against Cytochrome P450 2C19; 1.7 µM against Cytochrome P450 2C9 [2]; 8.1 µM at Cytochrome P450 3A4 [9]. 35 µM corresponded to half-maximal inhibition on Cytochrome P450 2D6 [10] (IC50). Moreover, the Increase in [5] amounted to 252.6%.
